Data on 1 compound can be found in article PMC7054359, “Effects of route of administration on oxytocin-induced changes in regional cerebral blood flow in humans” (Nature Communications, 2020).

Values joined by “and” are separate entries in the source; they are usually repeats but may differ in a detail not shown here. Equal entries are not always repeated. Where two headings read alike, the source gives them in different places.

A word on the bioavailability: it is the share of a dose that reaches the circulation, judged against a reference dose that is usually intravenous.

Data set [1] is described as follows: Plasma OT pharmacokinetics after intravenous, nasal spray or nebulizer administration (radioimmunoassay after extraction). The note with it: for Plasma OT Concentration, individual participants: Condition IV (10 IU), source data of Fig. 6a; for Plasma OT Concentration, individual participants / Bioavailability, individual participants: unit not given; for Bioavailability, individual participants: source data of Fig. 6c, one row per participant; for AUC of plasmatic oxytocin post-dosing / Cmax: 40 IU OT; for AUC of plasmatic oxytocin post-dosing: trapezoidal rule, 120 min post-dosing; for Cmax: healthy men, plasma, radioimmunoassay, read-out: Cmax, maximum plasmatic concentration achieved after dosing. Type of data set: in vivo, humans. Details: Plasma OT Concentration, individual participants: unit not given here. From the text:
For the intranasal administrations, participants self-administered a nominal dose of 40 IU OT (Syntocinon; 40IU/ml; Novartis, Basel, Switzerland), one of the highest clinically applicable doses. We have shown that 40IU delivered with a standard nasal spray induce robust rCBF changes in the human brain in a between-subjects, single-blind design study. For the intranasal administration, we used specially manufactured placebo that contained the same excipients as Syntocinon except for oxytocin.
The aerosol droplet size of three Syntocinon spray bottles was assessed by laser diffraction (Malvern Spraytec, Malvern Panalytical, Worcestershire, UK). The mass median diameter (MMD) of the aerosol plume was 37 ± 2.5 µm.
PARI SINUS nebulizer: Participants self-administered 40IU OT (Syntocinon) or placebo, by operating the SINUS nebulizer for 3 min in each nostril (6 min in total), according to instructions. The correct application of the device was confirmed by determining gravimetrically the administered volume. Participants were instructed to breathe using only their mouth and to keep a constant breath rate with their soft palate closed, to minimize delivery to the lungs. The PARI SINUS (PARI GmbH, Starnberg, Germany) is designed to deliver aerosolised drugs to the sinus cavities by ventilating the sinuses via pressure fluctuations. The SINUS nebulizer produces an aerosol with 3 µm MMD, which is superimposed with a 44 Hz pulsation frequency. […] The efficacy of this system was first shown in a scintigraphy study by ref. [76]. Since the entrance of the sinuses is located near the olfactory region, an improved delivery to the olfactory region was expected compared to nasal sprays. Other studies[32] have shown up to 9.0% (±1.9%) of the total administered dose to be delivered to the olfactory region, 15.7 (±2.4%) to the upper nose.
For the intravenous administration, we delivered 10IU OT (Syntocinon injection formulation, 10IU/ml, Alliance, UK) or saline via slow infusion over 10 min (1IU/min). A 50-ml syringe was loaded with either 32 ml of 0.9% sodium chloride (placebo) or 30 ml of 0.9% sodium chloride with […] of Syntocinon (10IU/ml). […] The ECG was monitored during the intravenous administration interval. We selected the intravenous dose and rate of administration to assure high plasmatic concentrations of OT throughout the observation period while restricting cardiovascular effects to tolerable and safe limits. A rate of 1IU per minute is typically used in caesarean sections and is considered to have minimised side effects[77],[78].
We collected plasma samples at baseline and at five timepoints post-dosing (as detailed in Fig. 1) to measure changes in the concentration of OT. Plasmatic OT was assayed by radioimmunoassay (RIAgnosis, Munich, Germany) after extraction, currently the gold-standard technique for OT quantifications in peripheral fluids. The detection limit of this assay is in the 0.5 pg/sample range. Cross-reactivity with vasopressin, ring moieties and terminal tripeptides of both OT and vasopressin and a wide variety of peptides comprising […] (alpha-melanocyte-stimulating hormone) up to 41 (corticotrophin-releasing factor) amino acids are <0.7% throughout. The intra- and inter-assay variabilities are <10%[80].
Pharmacokinetic analysis: From the plasmatic concentrations of OT at several timepoints after dosing we calculated the area under the curve (AUC) using the trapezoidal rule for each subject and session. AUC provides a single metric that reflects variations in plasma levels of OT concentration following OT/placebo administration for each session and each participant. […] Mean AUCs were compared between the three methods of administration with a repeated measures one-way analysis of variance, using the Greenhouse-Geisser correction against violations of sphericity. Post-hoc comparisons between methods were implemented using Tukey’s correction for multiple comparisons. […]

The conditions of data set [2]: intraperitoneal administration, cited from earlier work. From the text:
With respect to changes in rCBF induced by the intravenous administration of OT, there may be three possible mediating mechanisms. First, it is possible that peripheral effects of OT on vegetative territories, such as the heart, may be an indirect source of changes in areas of the interoceptive/allostasis network in the human brain, where the dorsal amygdala and the pregenual anterior cingulate cortex assume the role of visceromotor hubs[43]. […] The delivery to the paranasal sinuses seems to be increased about 3-5x by using the aerosol pulsation deposition method implemented by the PARI sinus nebuliser(6, 7). The paranasal sinus mucosa is also innervated by the trigeminal nerve which is one of the pathways propo ...

For data set [3] the following is noted: intravenous infusion of labelled synthetic OT; cited from earlier work. From the text:
With respect to changes in rCBF induced by the intravenous administration of OT, there may be three possible mediating mechanisms. First, it is possible that peripheral effects of OT on vegetative territories, such as the heart, may be an indirect source of changes in areas of the interoceptive/allostasis network in the human brain, where the dorsal amygdala and the pregenual anterior cingulate cortex assume the role of visceromotor hubs[43].

For data set [4] the following is noted: cited from earlier work. From the text:
Human studies almost exclusively target the central OT system by administering synthetic OT using nasal sprays, despite a lack of understanding of the mechanisms underpinning its pharmacodynamic effects. […] The intranasal administration of OT has been favoured under the assumption that once in the nasal cavity, OT can reach the brain directly, bypassing the BBB[13]. […] The first mechanism po ...

Take `CC[C@H](C)[C@@H]1NC(=O)[C@H](Cc2ccc(O)cc2)NC(=O)[C@@H](N)CSSC[C@@H](C(=O)N2CCC[C@H]2C(=O)N[C@@H](CC(C)C)C(=O)NCC(N)=O)NC(=O)[C@H](CC(N)=O)NC(=O)[C@H](CCC(N)=O)NC1=O` [OT, oxytocin]: the “Plasma OT Concentration, individual participants” value was 65.12 and 59.67 and 47.11 in data set [1] (Sample 2); 68.1 in data set [1] (Sample 3); 30.93 and 53.9 in data set [1] (Sample 4); 12.86 and 20.71 in data set [1] (Sample 6); 7.3 and 7.23 and 4.61 in data set [1] (Sample 7); 3.77 in data set [1] (Sample 8). Also, the “Time of peak plasma concentration” value is reported as “at the end of dosing” in data set [1] (Intravenous, 10 IU) and “at the end of dosing” in data set [1] (Nasal spray, 40 IU). The “Bioavailability, individual participants” value in data set [1] (Nebuliser 40 IU) was 31.90 and 10.30 and 3.30 and 7.94 and 12.67 and 62.94 and 5.39 and 6.53 and 8.236 and 4.17 and 6.07 and 5.20 and 6.82 and 10.22 and 6.95 and 32.80; in data set [1] (Spray 40 IU), 6.85 and 11.96 and 5.38 and 16.81 and 5.32 and 6.16 and 8.93 and 4.67 and 8.4323 and 12.50 and 14.77 and 6.29 and 7.56 and 11.34 and 5.36 and 37.05. In addition, the “AUC of plasmatic oxytocin post-dosing” value in data set [1] (PARI SINUS nebulizer, mean (1 SEM)) is recorded as 15.30 (2.14) pg.ml-1.h-1; in data set [1] (Standard nasal spray, mean (1 SEM)), 15.70 (1.97) pg.ml-1.h-1. Moreover, the Cmax stood at 0.0163 ng/mL in data set [1] (human, in vivo, inhaled or intranasal, 40 IU, PARI SINUS nebulizer, mean (1 SEM)) and 0.0158 ng/mL in data set [1] (human, in vivo, inhaled or intranasal, 40 IU, Standard nasal spray, mean (1 SEM)). For the same compound, in data set [1] (human, in vivo, inhaled or intranasal, Nebulizer, 40 IU, post-dosing, read-out: Time of peak plasma concentration (converted)), the Tmax was ~15 min. For the same compound, the bioavailability in data set [1] (human, in vivo, inhaled or intranasal, Standard nasal spray 40 IU, dose-corrected AUC intranasal / dose-corrected AUC intravenous, mean (1 SEM), read-out: Absolute bioavailability of oxytocin absorbed to the plasma) turned out to be 10.6%. In data set [2] (wild-type and OT knockout mice), the “OT concentration in brain extracellular fluid” value was “increased the concentration of OT in the extracellular fluid in the amygdala and dorsal hippocampus”. In addition, the “Time the concentration in amygdala extracellular fluid remains elevated” value in data set [2] (ref Smith et al. 2019) is listed as “about 1 h”. Besides, in data set [2] (ref Smith et al. 2019), the “Time to reach the extracellular fluid in the amygdala” value was ≤ 30 min. Further, the “Synthetic OT levels in the CSF” value in data set [3] is given as “increased synthetic OT levels in the CSF”. In addition, the “Crossing of the blood-brain barrier” value in data set [4] is given as “unable to cross the blood-brain barrier (BBB) in significant amounts”.
